Test results from patent publication US9718837B2, “Nitrogen-containing heterocyclic ring substituted dihydroartemisinin derivatives and use thereof” (Shenyang Pharmaceutical University, priority 2013, dated 2017).
Read-outs that look alike come from different tables or passages of the source.

Columns and labels:
[1] = test system: Human Breast Cancer Cells (MCF-7); experiment: Cell growth inhibition by direct cell counting, MCF-7; type: cell-based; conditions: read-out: IG50 MCF-7
Experimental: (§1) Cells were taken out carefully from liquid nitrogen (Frozen pipes), and the cell freezing medium was thawed rapidly in water bath at 37° C. in order to rapidly pass through the temperature range of 0 to 5° C. within which the cell is easily damaged. Cell suspension was sucked with pipette gun and put it into centrifugal tubes under sterile condition, then was centrifuged for 3 min at 1300 r/min. The supernatant was gently discarded, and then added with a fresh medium to pipette and mix the cells. Finally, the cells were transferred into culture flasks, and cultured in a carbon dioxide incubator. The medium was changed once after 24 h.
(§2) After resuscitation, the cells were passed for 2-3 generations till they became stable, then they were used for the experiments. Each passage was based on the standard that all cells were spread over the bottoms of culture flasks.
(§3) Cell suspensions of a certain density (5×10^4 cells/mL) were plated at 24-well plate, 2 mL/well. Different concentration of drugs were added thereto, and incubated or some time. Then, cells were counted under the microscope. The ratio of total number of cells in test group to the total number of cells in control group is the cell growth inhibition rate under the concentration condition. The total number of cells in cell suspension, which were treated by drugs, could be counted by blood count board. Inhibition rate was calculated using the formula: […]
(§4) According to cell growth inhibition rate of each concentration of drugs, half inhibitory concentration could be calculated. (IG50 is the drug concentration, when cell growth inhibition rate was 50%.)
(§5) 7) The Results of the Growth Inhibitory Activity of the Compounds on Human Breast Cancer Cells (MCF-7) and Human Multidrug Resistant Breast Cancer Cells (MCF-7/Adr) were Listed in Table 3.

[2] = test system: Human Multidrug Resistant Breast Cancer Cells (MCF-7/Adr); experiment: Cell growth inhibition by direct cell counting, MCF-7/Adr; type: cell-based; conditions: read-out: IG50 MCF-7/Adr
Experimental: as §1, §2, §3, §4, §5

[3] = MCF-7/Adr multidrug resistant cells

Question: For `CC1CCC2C(C)[C@@H](Oc3ccc(Cn4ccnn4)cc3)OC3OC4(C)CCC1C32OO4` (stereo partly drawn) [Example 3, (10S)—O-[4-((1,2,3-triazol-1-yl)methyl)phenyl]-dihydroartemisinin], which IC50 ([1]; MCF-7 cells) is on record?
Answer: 1320 nM

Question: What about the IC50 [2, 3] of the same compound?
Answer: 718 nM

Question: `C[C@H]1[C@@H](Oc2ccc(Cn3cncn3)cc2)O[C@@H]2O[C@@]3(C)CC[C@H]4[C@H](C)CC[C@@H]1[C@@]24OO3` [Example 4, (10S)—O-[4-((1,2,4-triazol-1-yl)methyl)phenyl]-dihydroartemisinin] was tested. Which IC50 ([1]; MCF-7 cells) did it give?
Answer: 1620 nM

Question: And the IC50 [2, 3]?
Answer: 476 nM

Question: Which results are given for `COc1ccccc1N1CCN(Cc2ccc(O[C@H]3O[C@@H]4O[C@@]5(C)CC[C@H]6[C@H](C)CC[C@@H]([C@H]3C)[C@@]46OO5)cc2)CC1` [Example 11, (10)-O-[4-[(4-(2-methoxyphenyl)piperazin-1-yl)methyl]phenyl](10S)-dihydroartemisinin]?
Answer: IC50 ([1]; MCF-7 cells): 475 nM; IC50 [2, 3]: 456 nM

Question: How did the IC50 ([1]; MCF-7 cells) turn out when `C[C@H]1[C@@H](Oc2ccc(CN3CCN(C)CC3)cc2)O[C@@H]2O[C@@]3(C)CC[C@H]4[C@H](C)CC[C@@H]1[C@@]24OO3` [Example 12, (10S)—O-[4-((4-methylpiperazin-1-yl)methyl)phenyl]-dihydroartemisinin] was run?
Answer: 1050 nM

Question: What about the IC50 [2, 3] of the same compound?
Answer: 190 nM

Question: Which IC50 ([1]; MCF-7 cells) does the source give for `C[C@H]1[C@@H](Oc2ccc(CN3CCN(c4ccc(F)cc4)CC3)cc2)O[C@@H]2O[C@@]3(C)CC[C@H]4[C@H](C)CC[C@@H]1[C@@]24OO3` [Example 13] here?
Answer: 267 nM

Question: And the IC50 [2, 3]?
Answer: 330 nM

Question: `C[C@H]1[C@@H](Oc2ccc(CN3CCN(c4ccccn4)CC3)cc2)O[C@@H]2O[C@@]3(C)CC[C@H]4[C@H](C)CC[C@@H]1[C@@]24OO3` [Example 14, 10-O-[4-[(4-(2-pyridyl)piperazin-1-yl)methyl]phenyl]-(10S)-dihydroartemisinin] was tested. Which IC50 ([1]; MCF-7 cells) did it give?
Answer: 1280 nM

Question: What about the IC50 [2, 3] of the same compound?
Answer: 1380 nM

Question: Which results are given for `CC1CCC2C(C)[C@@H](Oc3ccc(CN4CCN(c5ncccn5)CC4)cc3)OC3OC4(C)CCC1C32OO4` (stereo partly drawn) [Example 15, 10-O-[4-[(4-(2-pyrimidinyl)piperazin-1-yl)methyl]phenyl]-(10S)-dihydroartemisinin]?
Answer: IC50 ([1]; MCF-7 cells): 443 nM; IC50 [2, 3]: 1660 nM

Question: For `C[C@H]1[C@@H](Oc2cccc(CN3CCN(c4ccccc4)CC3)c2)O[C@@H]2O[C@@]3(C)CC[C@H]4[C@H](C)CC[C@@H]1[C@@]24OO3` [Example 18, 10-O-[3-[(4-phenylpiperazin-1-yl)methyl]phenyl]-(10S)-dihydroartemisinin], which IC50 ([1]; MCF-7 cells) is on record?
Answer: 690 nM

Question: And the IC50 [2, 3]?
Answer: 355 nM

Question: What does the source list for `CC1CCC2C(C)[C@@H](Oc3cccc(CN4CCN(Cc5ccccc5)CC4)c3)OC3OC4(C)CCC1C32OO4` (stereo partly shown) [Example 19]?
Answer: IC50 ([1]; MCF-7 cells): 1190 nM; IC50 [2, 3]: 1090 nM

Question: Which IC50 ([1]; MCF-7 cells) does the source give for `CC1CCC2C(C)[C@@H](Oc3ccc(/C=C/C(=O)N4CCOCC4)cc3)OC3OC4(C)CCC1C32OO4` (stereo partly drawn) [Example 21, (10S)—O-{4-[3-oxo-3-(morpholin-4-yl)-1-(E)-propen-1-yl]phenyl}-dihydroartemisinin] here?
Answer: 241 nM

Question: For `CC1CCC2C(C)[C@@H](Oc3ccc(/C=C/C(=O)N4CCCCC4)cc3)OC3OC4(C)CCC1C32OO4` (stereo partly drawn) [Example 22, (10S)—O-{4-[3-oxo-3-(piperidin-1-yl)-1-(E)-propen-1-yl]phenyl}-dihydroartemisinin], which IC50 ([1]; MCF-7 cells) is on record?
Answer: 6.07 nM

Question: How did the IC50 ([1]; MCF-7 cells) turn out when `C[C@H]1[C@@H](Oc2ccc(/C=C/C(=O)N3CCC(N4CCCCC4)CC3)cc2)O[C@@H]2O[C@@]3(C)CC[C@H]4[C@H](C)CC[C@@H]1[C@@]24OO3` [Example 23] was run?
Answer: 586 nM

Question: Which IC50 ([1]; MCF-7 cells) does the source give for `COc1ccccc1N1CCN(C(=O)/C=C/c2ccc(O[C@H]3O[C@@H]4O[C@@]5(C)CC[C@H]6[C@H](C)CC[C@@H]([C@H]3C)[C@@]46OO5)cc2)CC1` [Example 27, (10S)—O-{4-[3-oxo-3-(4-(2-methoxyphenyl)piperazin-1-yl)-1-(E)-propen-1-yl]phenyl}-dihydroartemisinin] here?
Answer: 322 nM

Question: How did the IC50 ([1]; MCF-7 cells) turn out when `CC1CCC2C(C)[C@@H](Oc3ccc(/C=C/C(=O)N4CCN(c5cccc(C(F)(F)F)c5)CC4)cc3)OC3OC4(C)CCC1C32OO4` (stereo partly drawn) [Example 28, (10S)—O-{4-[3-oxo-3-(4-(3-trifluoromethylphenyl)piperazin-1-yl)-1-(E)-propen-1-yl]phenyl}-dihydroartemisinin] was run?
Answer: 91.1 nM

Question: For `CC1CCC2C(C)[C@@H](Oc3ccc(/C=C/C(=O)N4CCN(Cc5ccccc5)CC4)cc3)OC3OC4(C)CCC1C32OO4` (stereo partly drawn) [Example 29, (10S)—O-{4-[3-oxo-3-(4-benzylpiperazin-1-yl)-1-(E)-propen-1-yl]phenyl}-dihydroartemisinin], which IC50 ([1]; MCF-7 cells) is on record?
Answer: 15.6 nM

Question: How did the IC50 ([1]; MCF-7 cells) turn out when `CC1CCC2C(C)[C@@H](Oc3ccc(/C=C/C(=O)N4CCN(c5ccccn5)CC4)cc3)OC3OC4(C)CCC1C32OO4` (stereo partly drawn) [Example 30, (10S)—O-{4-[3-oxo-3-(4-(2-pyridyl)piperazin-1-yl)-1-(E)-propen-1-yl]phenyl}-dihydroartemisinin] was run?
Answer: 263 nM

Question: Which IC50 ([1]; MCF-7 cells) does the source give for `CC1CCC2C(C)[C@@H](Oc3ccc(C=CC(=O)Oc4ccc(/C=C/C(=O)N5CCN(c6ncccn6)CC5)cc4)cc3)OC3OC4(C)CCC1C32OO4` (stereo partly drawn) [Example 32, 4-[(10S)-dihydroartemisinin-10-O-yl]phenyl-acrylic acid-4-[3-oxo-3-(4-(2-pyrimidinyl)piperazin-1-yl)-1-(E)-propen-1-yl]phenyl ester] here?
Answer: 408 nM

Question: Which IC50 ([1]; MCF-7 cells) does the source give for `CC1CCC2C(C)[C@@H](Oc3ccc(CC(=O)N4CCOCC4)cc3)OC3OC4(C)CCC1C32OO4` (stereo partly drawn) [Example 34, (10S)—O-{4-[2-(morpholin-4-yl)-2-oxoethyl]phenyl}-dihydroartemisinin] here?
Answer: 7580 nM

Question: And the IC50 [2, 3]?
Answer: 239 nM

Question: How did the IC50 ([1]; MCF-7 cells) turn out when `C[C@H]1[C@@H](Oc2ccc(CC(=O)N3CCCCC3)cc2)O[C@@H]2O[C@@]3(C)CC[C@H]4[C@H](C)CC[C@@H]1[C@@]24OO3` [Example 35, (10S)—O-{4-[2-(piperidin-1-yl)-2-oxoethyl]phenyl}-dihydroartemisinin] was run?
Answer: 1700 nM

Question: And the IC50 [2, 3]?
Answer: 62.4 nM

Question: With `CC1CCN(C(=O)Cc2ccc(O[C@H]3OC4OC5(C)CCC6C(C)CCC(C3C)C46OO5)cc2)CC1` (stereo partly drawn) [Example 36, (10S)—O-{4-[2-(4-methylpiperidin-1-yl)-2-oxoethyl]phenyl}-dihydroartemisinin] as the compound, how does the IC50 ([1]; MCF-7 cells) read?
Answer: 549 nM

Question: And the IC50 [2, 3]?
Answer: 104 nM

Question: For `CC1CCCCN1C(=O)Cc1ccc(O[C@H]2O[C@@H]3O[C@@]4(C)CC[C@H]5[C@H](C)CC[C@@H]([C@H]2C)[C@@]35OO4)cc1` (stereo partly drawn) [Example 37, (10S)—O-{4-[2-(2-methylpiperidin-1-yl)-2-oxoethyl]phenyl}-dihydroartemisinin], which IC50 [1] is on record?
Answer: 1250 nM

Question: Which IC50 ([1]; MCF-7 cells) does the source give for `CC1CC(C)CN(C(=O)Cc2ccc(O[C@H]3O[C@@H]4O[C@@]5(C)CC[C@H]6[C@H](C)CC[C@@H]([C@H]3C)[C@@]46OO5)cc2)C1` (stereo partly drawn) [Example 38, (10S)—O-{4-[2-(3,5-dimethylpiperidin-1-yl)-2-oxoethyl]phenyl}-dihydroartemisinin] here?
Answer: 516 nM

Question: And the IC50 [2, 3]?
Answer: 360 nM

Question: For `CC1CCC2C(C)[C@@H](Oc3ccc(CC(=O)N4CCC(N5CCCCC5)CC4)cc3)OC3OC4(C)CCC1C32OO4` (stereo partly drawn) [Example 39, (10S)—O-{4-[2-[4-(piperidin-1-yl)piperidin-1-yl]-2-oxoethyl]phenyl}-dihydroartemisinin], which IC50 ([1]; MCF-7 cells) is on record?
Answer: 1150 nM

Question: What about the IC50 [2, 3] of the same compound?
Answer: 22.9 nM

Question: How did the IC50 [1] turn out when `C[C@H]1[C@@H](Oc2ccc(CC(=O)N3CCN(c4ccccc4)CC3)cc2)O[C@@H]2O[C@@]3(C)CC[C@H]4[C@H](C)CC[C@@H]1[C@@]24OO3` [Example 40, (10S)—O-{4-[2-(4-phenylpiperazin-1-yl)-2-oxoethyl]phenyl}-dihydroartemisinin] was run?
Answer: 2660 nM

Question: And the IC50 [2]?
Answer: 79.1 nM

Question: Which results are given for `COc1ccccc1N1CCN(C(=O)Cc2ccc(O[C@H]3OC4OC5(C)CCC6C(C)CCC(C3C)C46OO5)cc2)CC1` (stereo partly drawn) [Example 41, (10S)—O-{4-[2-[4-(2-methoxyphenyl)piperazin-1-yl]-2-oxoethyl]phenyl}-dihydroartemisinin]?
Answer: IC50 ([1]; MCF-7 cells): 790 nM; IC50 [2, 3]: 29.8 nM

Question: With `CC1CCC2C(C)[C@@H](Oc3ccc(CC(=O)N4CCN(c5ccc(F)cc5)CC4)cc3)OC3OC4(C)CCC1C32OO4` (stereo partly drawn) [Example 42, (10S)—O-{4-[2-[4-(4-fluorophenyl)piperazin-1-yl]-2-oxoethyl]phenyl}-dihydroartemisinin] as the compound, how does the IC50 ([1]; MCF-7 cells) read?
Answer: 1090 nM

Question: And the IC50 [2, 3]?
Answer: 11.2 nM

Question: Which IC50 ([1]; MCF-7 cells) does the source give for `CC1CCC2C(C)[C@@H](Oc3ccc(CC(=O)N4CCN(C)CC4c4ccccc4)cc3)OC3OC4(C)CCC1C32OO4` (stereo partly drawn) [Example 43, (10S)—O-{4-[2-(4-methyl-2-phenylpiperazin-1-yl)-2-oxoethyl]phenyl}-dihydroartemisinin] here?
Answer: 2290 nM

Question: What about the IC50 [2, 3] of the same compound?
Answer: 1060 nM

Question: Which IC50 ([1]; MCF-7 cells) does the source give for `CC1CCC2C(C)[C@@H](Oc3ccc(CC(=O)N4CCN(C5CCCCC5)CC4)cc3)OC3OC4(C)CCC1C32OO4` (stereo partly drawn) [Example 46, (10S)—O-{4-[2-(4-cyclohexylpiperazin-1-yl)-2-oxoethyl]phenyl}-dihydroartemisinin] here?
Answer: 1120 nM

Question: What about the IC50 [2, 3] of the same compound?
Answer: 98 nM

Question: For `CC1CCC2C(C)[C@@H](Oc3ccc(CC(=O)NCc4ccccc4)cc3)OC3OC4(C)CCC1C32OO4` (stereo partly drawn) [Example 48, (10S)—O-[4-[2-(benzylamino)-2-oxoethyl]phenyl]-dihydroartemisinin], which IC50 ([1]; MCF-7 cells) is on record?
Answer: 1400 nM

Question: How did the IC50 [1] turn out when “(10S)—O-{4-[2-[4-(pyridin-2-yl)piperazin-1-yl]-2-oxoethyl]phenyl}-dihydroartemisinin [Example 44]” was run?
Answer: 1490 nM

Question: What about the IC50 [2] of the same compound?
Answer: 180 nM

Question: Which results are given for “(10S)—O-{4-[2-[4-(pyrimidin-2-yl)piperazin-1-yl]-2-oxoethyl]phenyl}-dihydroartemisinin [Example 45]”?
Answer: IC50 ([1]; MCF-7 cells): 1490 nM; IC50 [2, 3]: 110 nM
